# Assay results reported in patent US20260083722A1, “BIFUNCTIONAL DEGRADERS COMPRISING ELECTROPHILIC PROTACS THAT ENGAGE DCAF1 AND PHARMACEUTICAL COMPOSITIONS COMPRISING THE SAME” (THE SCRIPPS RESEARCH INSTITUTE, priority 2022, published 2026).
# Molecular target: T1, HA-FKBP12 (Homo sapiens, UniProt P62942)
# T1 construct: expressed in transfected cells; host or cells: HEK293T
# Assay: HA-FKBP12 abundance by Western blotting in transfected HEK293T cells
# Assay type: cell-based
# Details: for time after treatment until evidence of HA-FKBP12 degradation: 2 μM each, FLAG-DCAF1-transfected cells; for lowest concentration with evidence of FKBP12 degradation: HEK293T co-expressing HA-FKBP12 and FLAG-DCAF1; for degradation of FKBP12: cells expressing DCAF1-C1113A mutant; for hook effect in HA-FKBP12 degradation: emerging at 5 μM
# Description: (A) Left, western blots showing concentration-dependent effects of YT47R (upper) and YT41R (lower) on FKBP12 abundance in HEK293T cells expressing HA-FBKP12 with or without co-expression of FLAG-DCAF1. Right, quantification of HA-FKBP12 abundance in the indicated experimental groups. (B) Left, western blots showing effects of YT47R versus YT47S (upper) and YT41R versus YT41S (lower) on FKBP12 abundance in HEK293T cells co-expressing HA-FBKP12 and FLAG-DCAF1. Right, quantification of HA-FKBP12 abundance in the indicated experimental groups. (C) Western blots showing effects of YT47R (left blots) and YT41R (right blots) on FKBP12 abundance in HEK293T cells co-expressing HA-FBKP12 and either FLAG-DCAF1-WT or FLAG-DCAF1-C1113A mutant. Quantification of HA-FKBP12 abundance in the indicated experimental groups is shown in the adjacent bar graphs. For (A-C), FKBP12 abundance was determined at 24 h post-treatment with compounds, and data are mean values±SEM for three independent experiments. Statistical significance was calculated with unpaired two-tailed Student's t-tests comparing YT41R/YT47R- and DMSO-treated cells. ***P<0.001, ****P<0.0001.
# (A) Left, western blots showing effects of proteasome (MG132) and Neddylation (MLN4924) inhibitors (1 h pre-treatment) on YT47R- and YT41R-dependent degradation of FKBP12 in HEK293T cells co-expressing HA-FBKP12 and FLAG-DCAF1. FKBP12 abundance was determined at 24 h post-treatment with YT47R or YT41R. Right, quantification of HA-FKBP12 abundance in the indicated experimental groups. (B) Left, western blots showing effects of the FKBP12 ligand SLF (20 μM) or DCAF1 ligand MY-11B (1 h pre-treatment with 20 μM SLF or 5 μM MY-11B) on YT47R- and YT41R-dependent degradation of FKBP12 in HEK293T cells co-expressing HA-FBKP12 and FLAG-DCAF1. FKBP12 abundance was determined at 24 h post-treatment with YT47R or YT41R. Right, quantification of HA-FKBP12 abundance in the indicated experimental groups. (C) Left, western blots showing effects of MY-11A or MY-11B (5 μM, 1 h pre-treatment) on YT47R- and YT41R-dependent degradation of FKBP12 in HEK293T cells co-expressing HA-FBKP12 and FLAG-DCAF1. FKBP12 abundance was determined at 24 h post-treatment with YT47R or YT41R. Right, quantification of HA-FKBP12 abundance in the indicated experimental groups. For (A-C), data are mean values±SEM for three-five independent experiments. Statistical significance was calculated with unpaired two-tailed Student's t-tests comparing YT41R/YT47R- and DMSO-treated cells. ****P<0.0001.
# Figure S3. Concentration-dependent degradation of FKBP12 by DCAF1-directed electrophilic PROTACs. Top, western blots showing concentration-dependent effects of YT47R and YT41R on FKBP12 abundance in HEK293T cells co-expressing HA-FBKP12 and FLAG-DCAF1. Data are mean values±SEM for four independent experiments. Statistical significance was calculated with unpaired two-tailed Student's t-tests comparing YT41R/YT47R- and DMSO-treated cells. *P<0.1, **P<0.01, ***P<0.001, ****P<0.0001.
# Figure S4. Time-dependent degradation of FKBP12 by DCAF1-directed electrophilic PROTACs. Top, western blots showing time-dependent effects of YT47R and YT41R (2 μM each) on FKBP12 abundance in HEK293T cells co-expressing HA-FBKP12 and FLAG-DCAF1. Data are mean values±SEM for four independent experiments. Statistical significance was calculated with unpaired two-tailed Student's t-tests comparing YT41R/YT47R- and DMSO-treated cells. ****P<0.0001.
# We next treated HEK293T cells co-transfected with FLAG epitope-tagged full length DCAF1 (a.a.'s 1-1507) and HA (hemagglutinin) epitope-tagged FKBP12 with a concentration range of YT41R or YT47R and, after 24 h, measured HA-FKBP12 abundance by Western blotting.
# [1] = HEK293T cells transfected only with HA-FKBP12, 24 h
# [2] = HEK293T co-transfected with FLAG-DCAF1 and HA-FKBP12, 24 h
# T1 sequence (P62942 whole entry): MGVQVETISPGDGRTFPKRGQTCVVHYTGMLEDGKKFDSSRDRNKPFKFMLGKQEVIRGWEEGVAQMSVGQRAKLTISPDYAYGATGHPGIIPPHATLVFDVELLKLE
Compound,time after treatment until evidence of HA-FKBP12 degradation,degradation of HA-FKBP12 [1],lowest concentration with evidence of FKBP12 degradation,degradation of HA-FKBP12 [2],degradation of FKBP12,hook effect in HA-FKBP12 degradation
C=CC(=O)C1C[C@H](c2ccc(C(=O)NCCOCCOCCNC(=O)COc3cccc([C@@H](CCc4ccc(OC)c(OC)c4)OC(=O)[C@@H]4CCCCN4C(=O)C(=O)C(C)(C)CC)c3)cc2)[C@@H]1C(=O)Nc1cccc2cccnc12 (stereo partly drawn) [YT41R],~24 h,not,0.25 µM,Robust concentration-dependent degradation,did not promote the degradation,possible modest hook effect
C=CC(=O)N1C[C@H](c2ccc(C(=O)NCCOCCOCCOCCNC(=O)COc3cccc([C@@H](CCc4ccc(OC)c(OC)c4)OC(=O)[C@@H]4CCCCN4C(=O)C(=O)C(C)(C)CC)c3)cc2)[C@@H]1C(=O)Nc1cccc2cccnc12 [YT47R],~24 h,not,0.25 µM,Robust concentration-dependent degradation,did not promote the degradation,possible modest hook effect
